Measurements taken from publication PMC5293562, “Engineering a trifunctional proline utilization A chimaera by fusing a DNA-binding domain to a bifunctional PutA” (Bioscience Reports, 2016).
Like-named read-outs stand apart in the source and are kept apart here. Each block holds one compound with its values, some of them ahead of it.

Tests used:
EcRHH–RcPutA = tested on: T1, EcRHH–RcPutA; experiment: stopped-flow, CoQ1 reduction at […] nm; format: biochemical, Rhodobacter capsulatus; settings: 50 mM potassium phosphate pH 7.5, 25 mM NaCl, 23°C
T1 construct: gene putA; single polypeptide: E. coli PutA RHH domain (residues 1-52) fused via NdeI linker to N-terminus of full-length R. capsulatus PutA; 1180 aa; N-terminal His6 tag retained; pET28a, E. coli BL21(DE3) pLysS; homodimer, 126 kDa monomer

RcPutA = biological target: T2, RcPutA (Rhodobacter capsulatus, UniProt D5AN87); settings: 50 mM proline reduces flavin; anaerobic; HEPES pH 7.5, 150 mM NaCl; room temperature
T2 construct: gene putA
T2 sequence (D5AN87 1-1127): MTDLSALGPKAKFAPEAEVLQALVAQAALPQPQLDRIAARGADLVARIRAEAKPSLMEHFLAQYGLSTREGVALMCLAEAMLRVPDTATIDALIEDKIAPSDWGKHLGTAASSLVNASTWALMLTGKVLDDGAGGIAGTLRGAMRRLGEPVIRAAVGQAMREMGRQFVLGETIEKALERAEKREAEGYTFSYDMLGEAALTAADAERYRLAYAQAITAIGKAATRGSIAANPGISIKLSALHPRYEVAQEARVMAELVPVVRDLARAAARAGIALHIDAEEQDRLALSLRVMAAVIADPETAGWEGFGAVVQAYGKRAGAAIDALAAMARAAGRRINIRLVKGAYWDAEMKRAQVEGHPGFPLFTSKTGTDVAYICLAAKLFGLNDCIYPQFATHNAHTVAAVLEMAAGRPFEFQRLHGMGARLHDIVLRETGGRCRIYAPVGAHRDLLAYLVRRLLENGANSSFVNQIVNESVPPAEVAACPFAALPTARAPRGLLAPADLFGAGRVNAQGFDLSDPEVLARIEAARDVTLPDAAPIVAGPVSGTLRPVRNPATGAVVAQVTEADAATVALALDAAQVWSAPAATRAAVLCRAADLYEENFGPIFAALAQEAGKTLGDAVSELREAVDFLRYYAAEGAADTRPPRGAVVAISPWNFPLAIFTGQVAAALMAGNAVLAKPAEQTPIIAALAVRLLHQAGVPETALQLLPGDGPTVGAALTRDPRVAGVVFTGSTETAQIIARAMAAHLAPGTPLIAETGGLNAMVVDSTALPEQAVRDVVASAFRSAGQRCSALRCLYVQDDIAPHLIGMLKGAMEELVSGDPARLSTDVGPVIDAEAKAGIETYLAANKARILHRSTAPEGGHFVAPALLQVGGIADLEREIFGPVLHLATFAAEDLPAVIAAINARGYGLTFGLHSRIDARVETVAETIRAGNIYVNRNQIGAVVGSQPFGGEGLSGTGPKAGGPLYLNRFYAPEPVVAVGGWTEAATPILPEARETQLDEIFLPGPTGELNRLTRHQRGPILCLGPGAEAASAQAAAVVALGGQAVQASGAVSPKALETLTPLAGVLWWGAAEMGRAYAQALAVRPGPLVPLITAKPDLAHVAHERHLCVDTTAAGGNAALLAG

EcPutA = biological target: T3, EcPutA (Escherichia coli, UniProt P09546); settings: 50 mM proline reduces flavin; anaerobic; HEPES pH 7.5, 150 mM NaCl; room temperature
T3 construct: gene putA
T3 sequence (P09546 whole entry): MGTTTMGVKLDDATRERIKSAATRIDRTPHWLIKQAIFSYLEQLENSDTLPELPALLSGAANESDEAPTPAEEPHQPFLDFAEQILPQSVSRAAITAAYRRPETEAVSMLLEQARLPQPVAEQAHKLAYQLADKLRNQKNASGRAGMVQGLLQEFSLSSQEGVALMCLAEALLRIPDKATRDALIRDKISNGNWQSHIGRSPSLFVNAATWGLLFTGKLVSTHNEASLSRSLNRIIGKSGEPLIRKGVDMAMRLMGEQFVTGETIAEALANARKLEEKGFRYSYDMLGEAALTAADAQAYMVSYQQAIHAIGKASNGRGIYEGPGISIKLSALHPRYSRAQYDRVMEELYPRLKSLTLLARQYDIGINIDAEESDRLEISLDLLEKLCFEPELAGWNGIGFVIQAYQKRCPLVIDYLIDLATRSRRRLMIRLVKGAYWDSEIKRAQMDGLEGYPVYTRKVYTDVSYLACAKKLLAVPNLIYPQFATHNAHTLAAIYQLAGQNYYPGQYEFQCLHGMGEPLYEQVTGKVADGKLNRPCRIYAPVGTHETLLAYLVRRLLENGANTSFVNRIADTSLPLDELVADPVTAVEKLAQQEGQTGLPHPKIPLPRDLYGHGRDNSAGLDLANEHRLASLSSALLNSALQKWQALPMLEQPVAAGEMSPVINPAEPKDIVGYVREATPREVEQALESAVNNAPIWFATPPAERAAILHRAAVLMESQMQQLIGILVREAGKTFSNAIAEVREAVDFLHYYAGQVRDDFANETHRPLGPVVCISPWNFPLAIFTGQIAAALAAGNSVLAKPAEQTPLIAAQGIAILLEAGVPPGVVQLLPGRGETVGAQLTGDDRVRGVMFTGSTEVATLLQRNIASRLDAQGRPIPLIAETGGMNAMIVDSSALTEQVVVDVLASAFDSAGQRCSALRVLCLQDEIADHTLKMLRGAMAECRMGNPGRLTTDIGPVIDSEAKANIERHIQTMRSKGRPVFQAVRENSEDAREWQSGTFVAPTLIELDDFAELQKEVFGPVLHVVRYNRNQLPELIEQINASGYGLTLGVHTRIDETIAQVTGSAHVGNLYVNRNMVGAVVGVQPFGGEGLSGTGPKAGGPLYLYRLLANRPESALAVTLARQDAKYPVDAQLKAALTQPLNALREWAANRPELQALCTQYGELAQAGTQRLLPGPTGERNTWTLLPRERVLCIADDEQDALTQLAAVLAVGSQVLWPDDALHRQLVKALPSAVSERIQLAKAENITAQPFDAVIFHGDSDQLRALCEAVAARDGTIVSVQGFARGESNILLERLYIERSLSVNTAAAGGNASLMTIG

[1] = biological target: EcRHH–RcPutA chimaera (RHH domain of Escherichia coli PutA fused to the N-terminus of Rhodobacter capsulatus PutA) (Escherichia coli | Rhodobacter capsulatus) (UniProt P09546); experiment: AUC; sedimentation equilibrium, 0.2, 0.5 and 0.8 mg/ml, 8000 rpm, 50 mM Tris pH 7.5, 100 mM NaCl, 0.5 mM EDTA, 5% glycerol; global fit to an ideal single-species model
[2] = biological target: EcRHH–RcPutA chimaera (RHH domain of Escherichia coli PutA fused to the N-terminus of Rhodobacter capsulatus PutA) (Escherichia coli | Rhodobacter capsulatus) (UniProt P09546); experiment: SAXS; three protein concentrations after size exclusion chromatography in 50 mM Tris, 200 mM NaCl, 0.5 mM THP, pH 7.5; mass from volume of correlation and Porod-Debye analysis; shape reconstruction with 2-fold symmetry
[3] = tested on: EcRHH-RcPutA chimaera (Escherichia coli / Rhodobacter capsulatus (chimaera)); experiment: EMSA; settings: EMSA with 3 nM IRdye-700 put control DNA, 100 ug/ml calf thymus DNA, non-denaturing 4% polyacrylamide gel; binding buffer, salt, pH and temperature not given …

Sequence of EcRHH–RcPutA chimaera (RHH domain of Escherichia coli PutA fused to the N-terminus of Rhodobacter capsulatus PutA) (P09546 whole entry, the tested form may be a part): as the sequence (P09546 whole entry) above

- Km (EcRHH–RcPutA; PRODH electron acceptor, 200 mM proline, read-out: Proline / Km): 161 ± 15.8 µM
Compound: COC1=C(OC)C(=O)C(CC=C(C)C)=C(C)C1=O [CoQ1]

- Km (EcRHH–RcPutA; PRODH site, 300 μM CoQ1, read-out: Km): 5300 ± 900 µM
Compound: O=C(O)[C@@H]1CCCN1 [proline]
- lipid pull-down (E. coli polar lipid vesicles), SDS/PAGE (RcPutA): In the presence of proline, RcPutA and EcRHH–RcPutA significantly partition into the lipid fraction
- lipid pull-down (E. coli polar lipid vesicles), SDS/PAGE (EcPutA): RcPutA, EcRHH–RcPutA and EcPutA were incubated with E. coli polar lipid vesicles

- stoichiometry N [1]: 2
- stoichiometry N [2]: 2
Compound: EcRHH–RcPutA chimaera (RHH domain of Escherichia coli PutA fused to the N-terminus of Rhodobacter capsulatus PutA) (from UniProt P09546 1-52) (enzyme)

Compound: put control DNA (420 bp)
- Kd [3]: 58 nM
